Test results from paper PMC4279419, “Angiostatic, tumor inflammatory and anti-tumor effects of CXCL4^47–70 and CXCL4L1^47–70 in an EGF-dependent breast cancer model” (Oncotarget, 2014).
Where no end group is shown, it is not given here.

Key:
[1] = test system: F4/80^+ cells in MDA-MB-231 tumors; experiment: Flow cytometry of intratumoral F4/80^+ cells; format: in vivo, mice; settings: 2.5 μg intratumoral 3×/week; n=9; control 6.85 ± 1.18% (n=10)
Description: For flow cytometry, single cell suspensions were prepared from tumor biopsies using a MACS dissociator (Myltenyi Biotec, Bergisch Gladbach, Germany) and a mixture of collagenase A and dispase. Remaining cell clumps were removed by passing the cell suspension through a nylon cell strainer (70 μm mesh). Remaining red blood cells were lysed in ACK lysis buffer (0.15 M NH4Cl, 0.1 mM Na2EDTA, 10 mM KHCO3; pH = 7.2). Subsequently monocytes were identified by flow cytometry using specific antibodies, namely rat anti-mouse F4/80-PE antibody (eBiosciences, San Diego, CA).

NOS2 = experiment: qPCR tumor NOS2 mRNA (M1 marker); format: in vivo, murine; settings: 2.5 μg intratumoral 3×/week; 2^−ΔΔCT; not reaching statistical significance
Description: (§1) The RNeasy Mini Kit (QIAGEN, Venlo, the Netherlands) was used for tumor mRNA extraction. The extracted mRNA was then converted to cDNA making use of the High Capacity cDNA Reverse Transcription Kit (Applied Biosystems, Foster City, CA). Quantitative polymerase chain reactions (qPCR) based on the TaqMan principle were conducted to compare gene expression between samples. Primers and probes (Table 2; Integrated DNA Technologies, Haasrode, Belgium), were diluted to the prescribed working concentrations in RNase-free water and added to the reaction mix in a MicroAmp® fast optical 96-well reaction plate (Applied Biosystems), together with 50 ng sample cDNA per reaction. The actual thermocycler program consisted of 2 minutes on 50 °C, 10 minutes on 95 °C and 40 cycles of 15 seconds on 95 °C followed by 1 minute on 60 °C. Analysis of the obtained CT was based on the 2^−ΔΔC^T method, opting for 18S ribosomal 1 RNA as an internal control.

IFN-γ = experiment: qPCR tumor IFN-γ mRNA; format: in vivo, murine; settings: 2.5 μg intratumoral 3×/week; 2^−ΔΔCT
Description: as §1

TGM2 = experiment: qPCR tumor TGM2 mRNA (M2 marker); format: in vivo, murine; settings: 2.5 μg intratumoral 3×/week; 2^−ΔΔCT
Description: as §1

F4/80 = experiment: qPCR tumor F4/80 mRNA; format: in vivo, murine; settings: 2.5 μg intratumoral 3×/week; 2^−ΔΔCT; p=0.008, n=10
Description: as §1

Substance	intratumoral F4/80^+ cells [1] [%]	NOS2 mRNA versus control (NOS2)	IFN-γ mRNA versus vehicle (IFN-γ)	TGM2 mRNA versus control (TGM2)	F4/80 mRNA level versus control (F4/80)
CXCL4L1^47–70: synthetic human carboxy-terminal peptide restricted to the last 24 amino acids of CXCL4L1, Fmoc chemistry	7.74 ± 1.35	–	–	–	–
CXCL4^47–70: synthetic human carboxy-terminal peptide restricted to the last 24 amino acids of CXCL4, Fmoc chemistry (NGRKICLDLQAPLYKKIIKKLLES; not fully specified (N-terminus))	–	only modestly increased	significantly elevated expression	only a modest increase	significantly higher
